Measurements as given in patent US10874740B2, “5-ALA derivatives and use thereof” (UNIVERSITE DE GENEVE, priority 2015, dated 2020).
Where a name gives a salt, the structure may show the parent alone.

How the values were obtained:
A549 cell line = assay: Porphyrin accumulation (PpIX fluorescence) in A549 cells; type: cell-based, human; settings: tested 0.1 to 3.3 mM
Procedure: (§1) Human bladder carcinoma cell line T24 (ATTC® HTB-4™), human lung adenocarcinoma cell line A549 (ATTC® CCL-185™), human prostate cancer cell line PC-3 (ATTC® CRL-1435™), and human glioblastoma cell line U-87Mg (ATTC® HTB-14™) were grown as monolayers and maintained in DMEM^+GlutaMAX™-I medium, F12K nutrient mix, and MEM, respectively. Culture media were supplemented with 10% fetal calf serum (FCS) and […] streptomycin and 100 IU/ml penicillin. Cells were cultivated at 37° C. in humidified 95% air and 5% CO2 atmosphere and routinely maintained by serial passage in a new medium every 2-5 days, depending on the cell type.
(§2) Cell viability was measured using an MTT assay. T24 (5000 cells/well), PC3 (12000 cells/well), A549 (10000 cells/well) and U87Mg (10000 cells/well) were seeded in a 96-well plate and grown 12 to 18 hours. Then, the medium was replaced with medium containing increasing concentrations of different compounds of the invention (from 0.1 to 3.3 mM) and PPIX fluorescence was recorded with a plate reader (Safire, Tecan, Switzerland) at different time points (1, 2, 4, 6, 8 and 24 h). Excitation wavelength was set at 405 nm and emission wavelength at 630 nm. […] After background subtraction, porphyrin accumulation was calculated according to the fluorescence intensity at 635 nm.

CAM U87Mg spheroid tumor = assay: In vivo CAM U87Mg spheroid tumor model, fluorescence imaging; set-up: species or system chick; settings: Compound 7 100 μmol/kg; for tumor fluorescence signal / contrast: intravenous, Compound 1 300 μmol/kg, PpIX 100 μmol/kg, imaging 0, 30, 60, 120 min
Procedure: Compounds of the invention were tested in vivo in using the chorioallantoic membrane (CAM) model U87-Mg tumor spheroids were obtained using a modified procedure (De Magalhaes et al., 2010, 20-26) using 2.5×10^4 cells/mL. Spheroids grew 4 days before inoculation into the CAM. On embryonic development day (EDD) 7, the hole in the eggshell was enlarged to allow access to the CAM vasculature, using a needle (25 Gauge) a hole was drilled in the CAM. A binocular lens Leica M80 (Wetzlar, Germany) was used to perform the inoculation. Once the hole was pierced in the CAM, the spheroid (approximately of 200 μm) was placed in the cavity beneath the hole. Cell medium (20 μL) was placed on the spheroid to allow the tumor to attach to the CAM membrane and develop. Then, the eggs were sealed with parafilm and returned to the incubator to let spheroids grow until EDD13. Compounds were injected intravenously into the CAM vasculature (10-40 μL), preferentially into a large blood vessels using a needle (gauge 33, 51 mm, tap N type) attached to a 100 μL syringe (Hamilton, Reno, Nev.). Fluorescence imaging of tumor nodules was done with 12-bit monochrome CDD camera (Retiga EX Q-Imaging Canada) connected to fluorescence Eclipse E600 FN microscope with a CFI achromat objective characterized by magnification 4×, numerical aperture of 0.10 and a working distance of 30 mm (Nikon, Tokyo, Japan). A conical holder was used to place the eggs during experimentation under the objective of fluorescence microscope. A mercury arc lamp HBO 103/W/2 (MS Scientific Berlin, Germany) was used to provide illumination. For the detection of PpIX a BV-2A cube (Nikon, Tokyo, Japan) with an excitation filter: 400-440 nm, a dichroic mirror (455 nm) and an emission filter (470 nm) was used. A hollow slider filter 650/50 nm was added. Band pass filter 560/40 was used to image the autofluorescence of tumors. All pictures were taken with a 90 ms exposure and gain set at 50. […] Data was analysed using multiple t-tests and statistical significance determined at each time point.

U87-MG cell line = assay: Porphyrin accumulation (PpIX fluorescence) in U87-MG cells; type: cell-based, human; settings: tested 0.1 to 3.3 mM
Procedure: as §1, §2

[1] = Chemical stability in buffer at three pH values (UPLC); type: physicochemical; settings: 5 mM, 37° C., 20 mM buffers pH 4.00, 7.40, 8.90
Procedure: Chemical stability was investigated for compounds of the invention as compared to the known ester ALA-Hex as follows: Chemical stability was assayed at three different pH value by dissolving the compound of interest (or ALA-Hex control) in an appropriate buffer (pH=4.00 acetate buffer; pH=7.40 phosphate buffer; and pH 8.90 borate buffer). The buffer concentration was 20 mM. The solution was kept at 37° C. and assayed at different time points. Quantification of the starting material and degradation products was performed by UPLC using the Thermo Scientific Accela UPLC-MS system. The column used was Macherey-Nagel Nucleodur C18 Gravity 50/2 1.8 μm. 10 μL aliquots were injected and eluted using 10% acetonitrile and 90% ammonium formate buffer (10 mM) isocratic elution. The column was kept at 40° C. and the flow rate was 0.4 mL/min. The quantification was performed by integrating AUCs of the chromatograms of the peaks of interest at 220 nm.

chick embryos = assay: In vivo chicken acute toxicity (chick embryo, intravenous)
Procedure: (§3) 5-ALA-Hex is known for its pronounced acute toxicity after intravenous injection and the LD50 of the compounds of the invention was determined by escalating doses of compounds dissolved in milliQ™ water and pH adjusted to 7.4 administered to embryos via intravenous injection. The viability of chick embryos has been evaluated after 24 h after injection. […] This higher LD50 value is believed to be a consequence of the rapid conversion into 5-ALA-Hex. Therefore, the very high doses of Compound 1 that were tolerated by chick embryos (LD50 of 500 μmol/kg) are consistent since this compound is much more slowly converted into 5-ALA-Hex (and 5-ALA) in all tissues expressing alkaline phosphatase.

[2] = as above; settings: chicken (chick embryo), in vivo; chick embryos, intravenous injection, viability 24 h after injection
Procedure: as §3

PC3 cell line = assay: Porphyrin accumulation (PpIX fluorescence) in PC3 cells; type: cell-based, human; settings: for porphyrin synthesis capability (fluorescence kinetics) compared to ALA-hex: 1 mM; for concentration for optimal (highest) porphyrin formation: tested 0.1 to 3.3 mM
Procedure: as §1
Cell viability was measured using an MTT assay. T24 (5000 cells/well), PC3 (12000 cells/well), A549 (10000 cells/well) and U87Mg (10000 cells/well) were seeded in a 96-well plate and grown 12 to 18 hours. Then, the medium was replaced with medium containing increasing concentrations of different compounds of the invention (from 0.1 to 3.3 mM) and PPIX fluorescence was recorded with a plate reader (Safire, Tecan, Switzerland) at different time points (1, 2, 4, 6, 8 and 24 h). Excitation wavelength was set at 405 nm and emission wavelength at 630 nm. After 24 hours of incubation with different products, the cells were washed twice with DPBS and fresh medium was put into each well. They were then either irradiated with a light dose of 10 J/cm^2 or kept in the dark. After background subtraction, porphyrin accumulation was calculated according to the fluorescence intensity at 635 nm.

T24 cell line = assay: Porphyrin accumulation (PpIX fluorescence) in T24 cells; type: cell-based, human; settings: tested 0.1 to 3.3 mM
Procedure: as §1, §2

[3] = Nanoassembly formation and size by Dynamic Light scattering (DLS); type: physicochemical; settings: for formation of nanoassemblies in aqueous solution: ethanol solution added dropwise to MiliQ water; for average diameter of particles (DLS): nanomicelles 1 mg/mL in water
Procedure: 1 mg of compound 4 or compound 6 was dissolved in ethanol (300 μL). This solution was slowly added dropwise using a microsyringe to MiliQ water (1.2 mL) under magnetic stirring (500 RPM). […] The organic solvent was evaporated under reduced pressure (100 mbar) at 40° C. yielding the final solution of nanomicelles of 1 mg/mL which were analysed by Dynamic Light scattering (DLS) using Zetasizer Nano ZS machine (Malvern) and stored at ambient temperature. Dynamic Light scattering (DLS) results are presented under FIG. 4 for compound 4 (A) and for compound 6 (B) and show a high homogeneity in size of the particule population with an average diameter of about 73 nm for compound 4 and 98.5 nm for compound 6.

[4] = system: alkaline phosphatase from calf intestine; assay: In vitro enzymatic activation by alkaline phosphatase (UPLC); type: biochemical; settings: borate buffer pH 8.90, 0.5 mM magnesium chloride, 1 U to 100 U alkaline phosphatase, 37° C.
Procedure: The ability of compounds of the invention to release ALA in presence of a phosphatase was investigated as follows: In vitro activation of compounds of interest by alkaline phosphatase was assayed by dissolving the compound of the invention (or ALA-Hex control) in 20 mM borate buffer at pH 8.90 containing 0.5 mM magnesium chloride and 1 U to 100 U of alkaline phosphatase from calf intestine (Applichem). The solution was kept at 37° C. and assayed at different time points. Quantification of the starting material and degradation products was performed by UPLC using the Thermo Scientific Accela UPLC-MS system. The column used was Macherey-Nagel Nucleodur C18 Gravity 50/2 1.8 μm. […] aliquots were injected and eluted using appropriate acetonitrile and ammonium formate buffer (10 mM) ratio with isocratic elution according to the compound of invention. The quantification was performed by integrating AUCs of the chromatograms of the peaks of interest at 220 nm.

| Compound | concentration for optimal (highest) porphyrin formation (A549 cell line) [mM] | tumor fluorescence signal / contrast (CAM U87Mg spheroid tumor) | concentration for optimal (highest) porphyrin formation (U87-MG cell line) [mM] | chemical stability (% of compound remaining in solution versus time) as compared to ALA-Hex [1] | increase in LD50 compared to 5-ALA-Hex (chick embryos) | LD50 at 24 h [2] [µmol/kg] | porphyrin synthesis capability (fluorescence kinetics) compared to ALA-hex (PC3 cell line) | concentration for optimal (highest) porphyrin formation (PC3 cell line) [mM] | concentration for optimal (highest) porphyrin formation (T24 cell line) [mM] | formation of nanoassemblies in aqueous solution [3] | average diameter of particles (DLS) [3] | LD50 (chick embryos; intravenous injection, viability 24 h after injection) [µmol/kg] | time post injection at which fluorescence started to outline the tumors (CAM U87Mg spheroid tumor; intravenous into CAM vasculature) [min] | release of ALA upon activation of a phosphatase [4] |
| --- | --- | --- | --- | --- | --- | --- | --- | --- | --- | --- | --- | --- | --- | --- |
| CCCCCCOC(=O)CCC(=O)CNP(=O)(O)Oc1ccccc1 [Compound 1, Triethylammonium salt of hexyl 5-((hydroxy(phenoxy)phosphoryl)amino)-4-oxopentanoate] | 3.3 | delayed onset of the fluorescence signal but a robust contrast | 1.0 | increased chemical stability | 7 fold | 500 | comparable porphyrin synthesis capability | 3.3 | 3.3 |  |  |  |  |  |
| CCCCCCOC(=O)CCC(=O)CNP(=O)(O)OCCC/C(C)=C/CC/C(C)=C/CC/C=C(\C)CC/C=C(\C)CCC=C(C)C [Compound 4, Hexyl 5-((hydroxy(((4E,8E,12E,16E)-4,8,13,17,21-pentamethyldocosa-4,8,12,16,20-pentaen-1-yl)oxy)phosphoryl)amino)-4-oxopentanoate] |  |  |  |  |  |  |  |  |  | Nanoassemblies formed spontaneously | about 73 nm |  |  |  |
| CCCCCCOC(=O)CCC(=O)CN [Compound 5-ALA-Hex, 5-ALA-hexyl ester, reference compound] |  |  |  |  |  |  |  |  |  |  |  | 75 |  |  |
| CCCCCCOC(=O)CCC(=O)CNP(=O)(NCC(=O)CCC(=O)OCCCCCC)OCCC/C(C)=C/CC/C(C)=C/CC/C=C(\C)CC/C=C(\C)CCC=C(C)C [Compound 6, Bis-hexyl 5-((hydroxy(((4E,8E,12E,16E)-4,8,13,17,21-pentamethyldocosa-4,8,12,16,20-pentaen-1-yl)oxy)phosphoryl)bis-amino)-4-oxopentanoate] |  |  |  |  |  |  |  |  |  | Nanoassemblies formed spontaneously | ~98.5 nm |  |  |  |
| CCCCCCOC(=O)CCC(=O)CNC(=O)OCOP(=O)(O)O [Compound 7, hexyl 4-oxo-5-((((phosphonooxy)methoxy)carbonyl)amino)pentanoate] | 0.33 | excellent and statistically significant signal to background at 1 h and also at 2 h | 0.1 | increased chemical stability | several fold | 200 | comparable porphyrin synthesis capability | 0.33 | 0.1 |  |  |  | 30 | slower than the one from compound 1 |
